Measurements reported in the supplement of paper PMC10307832.

Compound: C=C(c1ccc(C(=O)O)cc1)c1cc2c(cc1C)C(C)(C)CCC2(C)C [Bexarotene]
Assay: relative viability (nuclei count vs DMSO), 5 days (fraction); higher = more cells survive
In short: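 Lung cancer cell lines were seeded into 1536-well plates, kept overnight at 37 °C and pinned with five library-drug doses (not always all listed) spaced by √10. After 5 days, nuclei were Hoechst-stained, imaged at 4× and counted with MetaXpress. Viability is treated-well nuclei over vehicle-well nuclei, taken as a median across plates. Plates needed control CV below 25% and at least one doubling.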

| Cell Line | relative viability (0.08 µM) | relative viability (0.253 µM) | relative viability (0.8 µM) | relative viability (2.53 µM) | relative viability (8 µM) |
| --- | --- | --- | --- | --- | --- |
| COR-L 105 | 1.13 | 1.02 | 0.963 | 0.987 | 0.892 |
| LK-2 | 1.32 | 0.942 | 1.04 | 0.977 | 0.998 |
| NCI-H727 | 0.961 | 0.978 | 0.916 | 1.05 | 1.04 |
| RERF-LC-KJ | 0.96 | 0.969 | 0.909 | 0.87 | 0.847 |
| NCI-H2023 | 1.05 | 0.958 | 1.01 | 0.921 | 0.771 |
| NCI-H322M | 1.08 | 1.03 | 0.937 | 0.988 | 1.01 |
| NCI-H1666 | 1.03 | 0.924 | 0.913 | 0.98 | 0.857 |
| SW 900 | 0.874 | 0.948 | 0.726 | 0.684 | 0.888 |
| NCI-H2087 | 1.08 | 1.12 | 1.02 | 1.03 | 0.892 |
| LU99A | 1.33 | 1.07 | 0.977 | 1.06 | 1.09 |
| HCC-366 | 1.06 | 0.998 | 1.02 | 0.999 | 1.02 |
| EKVX | 0.974 | 0.98 | 0.97 | 1.02 | 0.891 |
| NCI-H2342 | 1.01 | 0.797 | 0.965 | 1.04 | 1.06 |
| NCI-H1755 | 1.07 | 1.15 | 1.06 | 0.998 | 0.982 |
| NCI-H647 | 1.03 | 1.08 | 0.896 | 0.924 | 0.874 |
| LC-2-ad | 0.989 | 1.08 | 1.06 | 1 | 0.98 |
| NCI-H1793 | 1.12 | 0.93 | 0.754 | 0.838 | 0.881 |
| HCC-827 | 1.09 | 0.993 | 0.961 | 1.05 | 0.937 |
| HCC-78 | 1.09 | 0.889 | 0.844 | 0.849 | 1.08 |

| Cell Line | relative viability (0.08 µM) | relative viability (0.253 µM) | relative viability (0.8 µM) | relative viability (2.53 µM) | relative viability (8 µM) |
| --- | --- | --- | --- | --- | --- |
| NCI-H2085 | 0.981 | 0.979 | 0.903 | 0.869 | 0.901 |
| PC-14 | 1.05 | 1.17 | 0.973 | 0.92 | 0.896 |
| NCI-H1648 | 1.02 | 0.971 | 0.645 | 0.735 | 0.708 |
| A-427 | 1.06 | 0.963 | 0.954 | 0.895 | 0.893 |
| H3255 | 1.07 | 0.949 | 1.05 | 0.988 | 1.01 |
| HCC-44 | 0.981 | 1.02 | 0.889 | 0.976 | 0.932 |
| NCI-H1734 | 1.04 | 0.966 | 0.989 | 0.881 | 0.879 |
| NCI-H2228 | 1.02 | 1.24 | 1.03 | 0.819 | 0.947 |
| ABC-1 | 1 | 0.904 | 0.892 | 0.851 | 0.993 |
| COR-L23 | 1.16 | 0.979 | 0.936 | 0.874 | 0.951 |
| NCI-H661 | 1.04 | 0.998 | 0.934 | 0.922 | 0.91 |
| NCI-H1993 | 1.09 | 0.919 | 0.788 | 0.862 | 0.832 |
| NCI-H1437 | 1.04 | 1.01 | 1.03 | 0.996 | 1.01 |
| UMC-11 | 0.976 | 0.952 | 0.917 | 0.917 | 0.963 |
| 201T | 1.02 | 0.989 | 0.971 | 0.942 | 0.93 |
| NCI-H358 | 1.04 | 1.14 | 0.871 | 0.974 | 1.05 |
| ChaGo-K-1 | 1.09 | 1.01 | 1 | 1.03 | 0.989 |
| NCI-H1650 | 1.01 | 0.897 | 0.912 | 0.785 | 0.844 |
| LOU-NH91 | 1.04 | 0.957 | 0.952 | 0.869 | 0.926 |
